Legend:
[1] = test system: monoclonal antibody 14H04; test: ACMIA cross-reactivity / binding of tacrolimus derivatives to monoclonal antibody 14H04; parameters: species or system mouse; settings: ACMIA format
Method: The monoclonal antibody for region 14 may be identified by a screening method as follows: The binding region of an antibody clone was identified based on its binding properties to different tacrolimus derivatives such as metabolites and immunogens.
Measurements of tacrolimus derivatives by the ACMIA assay format were carried out according to the following procedure. Metabolites were obtained from Isotechnika Pharma Inc (Alberta, Canada) and Dr. Christistians Laboratory at University of Colorado in Denver, Colo. The tacrolimus derivative compounds such as immunogens were obtained from Siemens AG (Glasgow, Del.). The metabolite and immunogen cross-reactivity was measured using the ACMIA methodology described in U.S. Pat. No. 7,186,518, the relevant disclosure of which is incorporated herein by reference. Briefly, both clones were conjugated to β-galactosidase using a standard heterobifunctional SMCC (succinimidyl trans-4-(N-maleimidylmethyl)cyclohexane-1-carboxylate) linker according to known techniques. […] The cross reactivity was detected by testing the samples containing spiked metabolites and other tacrolimus derivatives such as the immunogens. […] Cross-reactivity was determined by dividing the apparent tacrolimus concentration by the concentration of added metabolite and expressing the result as a percentage.

monoclonal antibody 1E2 = test: ACMIA cross-reactivity / binding of tacrolimus derivatives to monoclonal antibody 1E2; parameters: species or system mouse; settings: ACMIA format, 1E2-β-galactosidase conjugate, tacrolimus C32 fluorescein derivative chrome particles
Method: The monoclonal antibody for region 12 may be identified by the following screening method. […] Modification of the hydroxyl group linked to C24 weakened the binding of monoclonal antibody 1E2 to tacrolimus.
Measurements of tacrolimus derivatives by the ACMIA assay format were carried out according to the following procedure. Metabolites were obtained from Isotechnika Pharma Inc (Alberta, Canada) and Dr. Christistians Laboratory at University of Colorado in Denver, Colo. The tacrolimus derivative compounds such as immunogens were obtained from Siemens AG (Glasgow, Del.). The metabolite and immunogen cross-reactivity was measured using the ACMIA methodology described in U.S. Pat. No. 7,186,518, the relevant disclosure of which is incorporated herein by reference. Briefly, both clones were conjugated to β-galactosidase using a standard heterobifunctional SMCC (succinimidyl trans-4-(N-maleimidylmethyl)cyclohexane-1-carboxylate) linker according to known techniques. Chrome particles (immunoassay solid phase) were prepared by conjugating tacrolimus analogs to bovine immunoglobulin and then to polyaldehyde dextran coated chromium dioxide particles. The tacrolimus analog used for monoclonal antibody 14H04 was a tacrolimus C22 oxime compound. The analog used for monoclonal antibody 1E2 was a tacrolimus C32 fluorescein derivative immobilized on anti-fluorescein antibody coated chromium dioxide particles. The cross reactivity was detected by testing the samples containing spiked metabolites and other tacrolimus derivatives such as the immunogens. The assay signals obtained from the samples containing the spiked metabolites were compared to the signals obtained from the samples containing tacrolimus standards. Cross-reactivity was determined by dividing the apparent tacrolimus concentration by the concentration of added metabolite and expressing the result as a percentage.

In the case of `C=CCC1C=C(C)CC(C)CC(O)C2OC(O)(C(=O)C(=O)N3CCCCC3C(=O)OC(C(C)=CC3CCC(O)C(OC)C3)C(C)C(O)CC1=O)C(C)CC2OC` (stereo not drawn) [15-O-demethyl tacrolimus, 15-O-desmethyl-tacrolimus], the “cross-reactivity with monoclonal antibody 14H04” value ([1]; spiked metabolite compared with tacrolimus standards) was “no cross-reactivity”.
In the case of `C=CCC1C=C(C)CC(C)CC(OC)C2OC(O)(C(=O)C(=O)N3CCCCC3C(=O)OC(C(C)=CC3CCC(O)C(OC)C3)C(C)C(O)CC1=O)C(C)CC2O` (stereo not drawn) [M1, 13-O-desmethyl-tacrolimus], the “binding to monoclonal antibody 1E2” value (monoclonal antibody 1E2) was “removed the binding”.
With `C=CCC1C=C(C)CC(C)CC(OC)C2OC(O)(C(=O)C(=O)N3CCCCC3C(=O)OC(C(C)=CC3CCC(O)C(O)C3)C(C)C(O)CC1=O)C(C)CC2OC` (stereo not drawn) [31-O-desmethyl, 31-O-desmethyl Tacrolimus] the “binding to monoclonal antibody 1E2” value (monoclonal antibody 1E2) was “does not decrease binding”.
`C=CCC1C=C(C)CC(C)CC(OC)C2OC(O)(C(=O)C(=O)N3CCCCC3C(=O)OC(C(C)=CC3CCC(O)C(O)C3)C(C)C(O)CC1=O)C(C)CC2O` (stereo not drawn) [MVI, 13,31-O-didesmethyl-tacrolimus] was tested, and the “binding to monoclonal antibody 1E2” value (monoclonal antibody 1E2) was “removed the binding”.
`C=CCC1C=C(C)CC(C)CC(OC)C2OC(O)(C(=O)C(=O)N3CCCCC3C(=O)OC(C(C)=CC3CCC(O)C(OC)C3)C(C)C(O)CC1=NO)C(C)CC2OC` (stereo not drawn) [tacrolimus C22 oxime] was tested, and the “binding to monoclonal antibody 14H04” value ([1]; 14H04-β-galactosidase conjugate, tacrolimus C22 oxime chrome particles) was “strong binding” and the “binding to monoclonal antibody 1E2” value (monoclonal antibody 1E2) was “does not bind”.

From patent publication US8586322B2, “Sandwich assay for immunosuppressant drugs” (Siemens Healthcare Diagnostics, Inc, priority 2012, dated 2013)
